Our source for the IC50 values is patent publication US20250368649A1, “TETRAHYDROPYRIDOPYRIMIDINE PAN-KRAS INHIBITORS” (Mirati Therapeutics, Inc., priority 2022, published 2025).

Molecules are shown by their SMILES.

For one experiment, the target named is KRas G12A (Homo sapiens, UniProt P01116, G12A). It counts as binding. The conditions noted are these: TR-FRET displacement, read-out: Binding to KRas (IC50 nM) G12A.
The target of another experiment is KRas G12D (Homo sapiens, UniProt P01116, G12D). Description: biochemical. To be noted: Binding to KRas (IC50 nM) G12D, TR-FRET displacement, KRas G12D. (In TR-FRET formats the signal depends on donor and acceptor labels being close together.)
In a further experiment the target is KRas G12C (Homo sapiens, UniProt P01116, G12C). It counts as binding. To be noted: TR-FRET displacement, read-out: Binding to KRas (IC50 nM) G12C.
Another experiment addresses KRas WT (Homo sapiens, UniProt P01116). As to the kind of experiment: KRas binding assay (TR-FRET displacement), KRas WT. The conditions noted are these: TR-FRET displacement.
The target of another experiment is KRas G12V (Homo sapiens, UniProt P01116, G12V). Description: biochemical. The conditions noted are these: Binding to KRas (IC50 nM) G12V, TR-FRET displacement, KRas G12V.
For another experiment, the target named is KRas Q61H (Homo sapiens, UniProt P01116, Q61H). Description: KRas binding assay (TR-FRET displacement), KRas Q61H. To be noted: TR-FRET displacement.
The target of another experiment is KRas G13D (Homo sapiens, UniProt P01116, G13D). It counts as binding. To be noted: TR-FRET displacement, read-out: Binding to KRas (IC50 nM) G13D.
The next experiment addresses KRas G12S (Homo sapiens, UniProt P01116, G12S). Type of experiment: binding. The conditions noted are these: TR-FRET displacement, read-out: Binding to KRas (IC50 nM) G12S.

Chain of KRas WT (P01116 1-169 isoform P01116-2): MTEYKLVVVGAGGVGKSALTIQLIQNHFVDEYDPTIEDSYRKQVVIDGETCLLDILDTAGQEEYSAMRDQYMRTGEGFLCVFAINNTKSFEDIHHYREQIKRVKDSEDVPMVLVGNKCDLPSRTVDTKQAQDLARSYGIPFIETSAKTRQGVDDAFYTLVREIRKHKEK
Chain of KRas G12A (P01116 1-169 isoform P01116-2 G12A): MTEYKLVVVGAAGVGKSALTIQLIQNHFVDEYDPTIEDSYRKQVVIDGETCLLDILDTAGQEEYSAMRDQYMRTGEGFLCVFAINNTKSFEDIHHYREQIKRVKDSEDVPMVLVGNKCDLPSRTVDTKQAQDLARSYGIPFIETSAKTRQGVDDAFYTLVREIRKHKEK
Chain of KRas G12S (P01116 1-169 isoform P01116-2 G12S): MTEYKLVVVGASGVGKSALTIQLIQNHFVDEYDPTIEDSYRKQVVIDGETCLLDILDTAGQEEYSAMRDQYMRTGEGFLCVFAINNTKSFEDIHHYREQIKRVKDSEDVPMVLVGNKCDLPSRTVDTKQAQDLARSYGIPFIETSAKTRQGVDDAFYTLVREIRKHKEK
Chain of KRas G12C (P01116 1-169 isoform P01116-2 G12C): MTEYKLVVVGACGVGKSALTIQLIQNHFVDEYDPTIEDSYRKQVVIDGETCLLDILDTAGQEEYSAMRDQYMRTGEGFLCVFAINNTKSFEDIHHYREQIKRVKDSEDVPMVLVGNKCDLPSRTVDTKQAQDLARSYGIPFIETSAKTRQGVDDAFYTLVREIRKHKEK
Chain of KRas G12V (P01116 1-169 isoform P01116-2 G12V): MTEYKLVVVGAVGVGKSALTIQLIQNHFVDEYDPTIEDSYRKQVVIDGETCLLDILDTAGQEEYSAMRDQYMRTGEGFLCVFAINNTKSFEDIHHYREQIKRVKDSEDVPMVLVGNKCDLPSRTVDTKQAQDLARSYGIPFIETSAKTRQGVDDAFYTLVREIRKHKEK
Chain of KRas Q61H (P01116 1-169 isoform P01116-2 Q61H): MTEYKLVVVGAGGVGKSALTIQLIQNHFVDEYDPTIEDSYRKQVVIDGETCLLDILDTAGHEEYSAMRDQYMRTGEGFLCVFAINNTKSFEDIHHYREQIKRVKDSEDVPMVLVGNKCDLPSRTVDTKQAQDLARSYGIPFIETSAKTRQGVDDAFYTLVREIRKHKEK
Chain of KRas G13D (P01116 1-169 isoform P01116-2 G13D): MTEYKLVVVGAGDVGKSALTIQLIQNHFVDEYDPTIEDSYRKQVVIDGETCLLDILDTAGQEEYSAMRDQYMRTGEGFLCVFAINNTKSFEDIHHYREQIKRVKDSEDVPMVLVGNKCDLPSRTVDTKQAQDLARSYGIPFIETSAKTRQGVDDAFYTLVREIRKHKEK
Chain of KRas G12D (P01116 1-169 isoform P01116-2 G12D): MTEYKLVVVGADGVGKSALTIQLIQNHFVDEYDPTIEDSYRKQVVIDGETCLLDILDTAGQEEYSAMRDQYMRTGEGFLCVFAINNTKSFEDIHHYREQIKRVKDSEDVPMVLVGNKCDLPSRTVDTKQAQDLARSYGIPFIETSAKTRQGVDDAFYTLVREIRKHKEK

Turning to `CCc1cccc2cccc(N3CCc4c(nc(OCC5(CN(C)C)CC5)nc4N4CC(CO)OC(C(F)(F)F)C4)C3)c12` (centres unmarked) [Example 540, (4-(2-((1-((dimethylamino)methyl)cyclopropyl)methoxy)-7-(8-ethylnaphthalen-1-yl)-5,6,7,8-tetrahydropyrido[3,4-d]pyrimidin-4-yl)-6-(trifluoromethyl)morpholin-2-yl)methanol], the IC50 – broadly, the point on the concentration scale where inhibition reaches its midpoint – stood at 3280 nM on KRas G12A; 9350 nM at KRas G12D; 1840 nM at KRas G12C; 5810 nM on KRas WT; 1720 nM on KRas G12V; 7730 nM on KRas Q61H. Moreover, the 50% inhibitory concentration (IC50) at KRas G13D was determined as 8850 nM; on KRas G12S, 3750 nM.

In the case of `CCc1cccc2cccc(N3CCc4c(nc(OCC5(CN(C)C)CC5)nc4NCc4ccnn4C4CC4(F)F)C3)c12` (centres unmarked) [Example 541, N-((1-(2,2-difluorocyclopropyl)-1H-pyrazol-5-yl)methyl)-2-((1-((dimethylamino)methyl)cyclopropyl)methoxy)-7-(8-ethylnaphthalen-1-yl)-5,6,7,8-tetrahydropyrido[3,4-d]pyrimidin-4-amine], the half-inhibitory concentration (IC50) at KRas G12A stood at 259 nM; on KRas G12D, 10000 nM; at KRas G12C, 165 nM; on KRas WT it was 256 nM; at KRas G12V, 5980 nM; at KRas Q61H, 298 nM. Further, the half-inhibitory concentration (IC50) on KRas G13D is 200 nM; on KRas G12S it was 169 nM.

`CCc1cccc2cccc(N3CCc4c(nc(OCC5(CN(C)C)CC5)nc4NC4CCCc5[nH]ncc54)C3)c12` (centres unmarked) [Example 542, 2-((1-((dimethylamino)methyl)cyclopropyl)methoxy)-7-(8-ethylnaphthalen-1-yl)-N-(4,5,6,7-tetrahydro-1H-indazol-4-yl)-5,6,7,8-tetrahydropyrido[3,4-d]pyrimidin-4-amine]: the half-maximal inhibitory concentration (IC50) at KRas G12A was found to be 5740 nM; on KRas G12D, 11600 nM; at KRas G12C, 2890 nM; on KRas WT, 10400 nM; on KRas G12V, 5370 nM; on KRas Q61H it was 18300 nM. In addition, the half-maximal inhibitory concentration (IC50) was determined as 15800 nM at KRas G13D and 5830 nM on KRas G12S.

`CCc1cccc2cccc(N3CCc4c(nc(OCC5(CN(C)C)CC5)nc4N4CCC(F)C(OC)C4)C3)c12` (centres unmarked) [Example 543, 1-(1-(((7-(8-ethylnaphthalen-1-yl)-4-(4-fluoro-3-methoxypiperidin-1-yl)-5,6,7,8-tetrahydropyrido[3,4-d]pyrimidin-2-yl)oxy)methyl)cyclopropyl)-N,N-dimethylmethanamine]: the 50% inhibitory concentration (IC50) turned out to be 1200 nM on KRas G12A; 12100 nM on KRas G12D; 634 nM at KRas G12C; 1500 nM at KRas WT; 3940 nM on KRas G12V; 2400 nM at KRas Q61H. Besides, the half-maximal inhibitory concentration (IC50) was found to be 2270 nM on KRas G13D and 750 nM on KRas G12S.

On to `CCc1cccc2cccc(N3CCc4c(nc(OCC5(CN(C)C)CC5)nc4N4CCOC(C(F)F)CC4)C3)c12` (centres unmarked) [Example 544, 1-(1-(((4-(7-(difluoromethyl)-1,4-oxazepan-4-yl)-7-(8-ethylnaphthalen-1-yl)-5,6,7,8-tetrahydropyrido[3,4-d]pyrimidin-2-yl)oxy)methyl)cyclopropyl)-N,N-dimethylmethanamine], for which the half-maximal inhibitory concentration (IC50) on KRas G12A is 291 nM; at KRas G12D, 21100 nM; on KRas G12C it was 180 nM; at KRas WT it was 327 nM; on KRas G12V, 14500 nM; at KRas Q61H, 121 nM. Also, the results for the 50% inhibitory concentration (IC50) on KRas G13D and at KRas G12S were 112 nM and 204 nM, respectively.

`CCc1cccc2cccc(N3CCc4c(nc(OCC5(CN(C)C)CC5)nc4N4CCCC(c5n[nH]cc5NC(C)=O)C4)C3)c12` (centres unmarked) [Example 545, N-(3-(1-(2-((1-((dimethylamino)methyl)cyclopropyl)methoxy)-7-(8-ethylnaphthalen-1-yl)-5,6,7,8-tetrahydropyrido[3,4-d]pyrimidin-4-yl)piperidin-3-yl)-1H-pyrazol-4-yl)acetamide]: the IC50 stood at 4750 nM at KRas G12A; 13100 nM at KRas G12D; 4780 nM on KRas G12C; 7230 nM on KRas WT; 6080 nM at KRas G12V; 5900 nM on KRas Q61H. The figures for the IC50 on KRas G13D and at KRas G12S were 8090 nM and 5000 nM, respectively.

Consider `CCc1cccc2cccc(N3CCc4c(nc(OCC5(CN(C)C)CC5)nc4N4CCOC(CNC(=O)NC)C4)C3)c12` (centres unmarked) [Example 546, 1-((4-(2-((1-((dimethylamino)methyl)cyclopropyl)methoxy)-7-(8-ethylnaphthalen-1-yl)-5,6,7,8-tetrahydropyrido[3,4-d]pyrimidin-4-yl)morpholin-2-yl)methyl)-3-methylurea], for which the half-inhibitory concentration (IC50) on KRas G12A turned out to be 3800 nM; on KRas G12D, 13600 nM; on KRas G12C it was 2630 nM; on KRas WT, 2640 nM; on KRas G12V, 4640 nM; at KRas Q61H, 3310 nM. Besides, the IC50 on KRas G13D amounted to 4620 nM; on KRas G12S, 3570 nM.

For `CCc1cccc2cccc(N3CCc4c(nc(OCC5(CN(C)C)CC5)nc4NCCC4CC(C)(C)NC4=O)C3)c12` (centres unmarked) [Example 547, 3-(2-((2-((1-((dimethylamino)methyl)cyclopropyl)methoxy)-7-(8-ethylnaphthalen-1-yl)-5,6,7,8-tetrahydropyrido[3,4-d]pyrimidin-4-yl)amino)ethyl)-5,5-dimethylpyrrolidin-2-one], the half-inhibitory concentration (IC50) at KRas G12A was 798 nM; at KRas G12D it was 15900 nM; on KRas G12C, 622 nM; on KRas WT, 667 nM; at KRas G12V, 2320 nM; at KRas Q61H it was 784 nM. Besides, the values for the half-inhibitory concentration (IC50) on KRas G13D and on KRas G12S were 680 nM and 707 nM, respectively.

With `CCc1cccc2cccc(N3CCc4c(nc(OCC5(CN(C)C)CC5)nc4N(C)Cc4nnc5n4CC(C(F)(F)F)CC5)C3)c12` (centres unmarked) [Example 548, 2-((1-((dimethylamino)methyl)cyclopropyl)methoxy)-7-(8-ethylnaphthalen-1-yl)-N-methyl-N-((6-(trifluoromethyl)-5,6,7,8-tetrahydro-[1,2,4]triazolo[4,3-a]pyridin-3-yl)methyl)-5,6,7,8-tetrahydropyrido[3,4-d]pyrimidin-4-amine], the IC50 on KRas G12A is 6790 nM; on KRas G12D, 16700 nM; on KRas G12C, 4120 nM; on KRas WT, 10000 nM; on KRas G12V, 5890 nM; on KRas Q61H, 11100 nM. Further, the figures for the IC50 on KRas G13D and on KRas G12S were 13900 nM and 8210 nM, respectively.

Turning to `CCc1cccc2cccc(N3CCc4c(nc(OCC5(CN(C)C)CC5)nc4N(C)Cc4nncn4C(C)C)C3)c12` [Example 549, 2-((1-((dimethylamino)methyl)cyclopropyl)methoxy)-7-(8-ethylnaphthalen-1-yl)-N-((4-isopropyl-4H-1,2,4-triazol-3-yl)methyl)-N-methyl-5,6,7,8-tetrahydropyrido[3,4-d]pyrimidin-4-amine], the concentration for half-maximal inhibition (IC50) was 1670 nM at KRas G12A; 17400 nM at KRas G12D; 946 nM on KRas G12C; 1910 nM on KRas WT; 1980 nM at KRas G12V; 2540 nM at KRas Q61H. Besides, the results for the IC50 on KRas G13D and on KRas G12S were 2110 nM and 1360 nM, respectively.
